Results: patent US20130115671A1, “ENZYMES FROM CONIDIOBOLUS BREFELDIANUS AND PROCESS FOR PREPARATION THEREOF” (Council of Scientific and Industrial Research, priority 2010, published 2013)
Where “and” joins values, the source holds several entries; their conditions need not be identical. Equal values may be shown once.

Legend:
[1] = tested on: protease of Conidiobolus brefeldianus MTCC 5185; assay: Effect of inhibitors on protease activity (PMSF, EDTA, iodoacetate, DMSO); assay type: biochemical; details: pre-incubated 1 h, pH 8.0; 20 mM EDTA, 10 mM Iodoacetate, 1 mM PMSF (in DMSO), DMSO
Description: This example illustrates the effect of inhibitors on protease activity of Conidiobolus brefeldianus MTCC 5185. Following inhibitors were studied: phenylmethylsulfonyl fluoride (PMSF), ethylene-diaminetetraacetic acid (EDTA), iodoacetic acid, and dimeth ylsulphoxide (DMSO). The crude culture filtrate grown as described in example 3 was concentrated by ultra-filtration on PM-10 and YM-3 membranes as described in example 27 and used for inhibition studies. Both the protease preparations were pre-incubated in 100 mM Tris-HCl buffer (pH 8.0) with each inhibitor for 1 h and the residual protease activity was measured at 50° C., pH 9.0. Protease without inhibitor served as control.

[2] = tested on: protease from Conidiobolus brefeldianus MTCC 5185; assay: Stability of protease in presence of organic solvents at 28° C.; assay type: physicochemical; parameters: key to residual activity of protease, 0 h / residual activity of protease, 12 h: % of initial activity with respective solvent (initial = 100%); details: crude protease, 20% (v/v) solvent
Description: This example illustrates the effect of water miscible as well as water immiscible organic solvents on stability of crude protease at 28° C. […] Samples were removed at different time intervals and residual activity was estimated. Sample without organic solvent served as control. Initial activity with respective solvents was taken as 100% (Table 17). […] (Table 17).

[3] = tested on: protease from Conidiobolus brefeldianus MTCC 5185; assay: Stability of protease in presence of organic solvents at 37° C.; assay type: physicochemical; details: 20% (v/v) solvent
Description: This example illustrates the effect of water miscible as well as water immiscible organic solvents on stability of crude protease at 37° C. […] Samples were removed at different time intervals and residual activity was estimated. Sample without organic solvent served as control.

[4] = tested on: protease of Conidiobolus brefeldianus MTCC 5185; assay: Effect of inhibitors on protease activity (TPCK, TLCK, Benzamidine); assay type: biochemical; details: 5 mM inhibitor, crude protease pre-incubated 30 min, pH 8.0
Description: This example illustrates the effect of inhibitors on protease activity of Conidiobolus brefeldianus MTCC 5185. Following inhibitors were studied: N-tosyl-L-phenylalanine chloromethyl ketone (TPCK), N-tosyl-L-lysine chloromethyl ketone (TLCK), and Benzamidine. Crude protease was pre-incubated with each inhibitor in 100 mM Tris-HCl buffer (pH 8.0) for 30 min and the residual protease activity was measured 50° C., pH 9.0. Protease without inhibitor served as control.

Compound	Inhibition (%) PM-10 Retentate [1] [%]	Inhibition (%) YM-3 Retentate [1] [%]	residual activity of protease, 0 h ([2]; 0 h)	residual activity of protease, 5 h ([2]; 5 h)	residual activity of protease, 12 h ([2]; 12 h)	Residual Activity (%) of protease, 30 min ([3]; pH 7, 30 min) [%]	Residual Activity (%) of protease, 60 min ([3]; pH 7, 60 min) [%]	Residual Activity (%) of protease, 120 min ([3]; pH 7, 120 min) [%]	Residual Activity (%) of protease, 240 min ([3]; pH 7, 240 min) [%]	Residual Activity (%) of protease, 0 ([3]; crude protease, pH 7, 0 min) [%]	Inhibition (%) [4]
C[S+](C)[O-] [DMSO, dimethylsulphoxide]	3.02	1.37	100	98.12	54.55	69.48	68.94	48.70	28.53	100	–
N-tosyl-L-lysine chloromethyl ketone [TLCK]	–	–	–	–	–	–	–	–	–	–	29% and 29.22%
N-tosyl-L-phenylalanine chloromethyl ketone [TPCK]	–	–	–	–	–	–	–	–	–	–	9% and 9.02%
